One experiment deals with MCF7 cells. Kind of experiment: In vitro cell proliferation assays (Examples 902 and 903), MCF7. Particulars: read-out: ER-alpha MCF7 HCS (EC50). Format: cell-based.
Experiment [1] concerns the target T1, estrogen receptor alpha (ESR1) (Homo sapiens, UniProt P03372).
T1 construct: endogenous in cells; host or cells: MCF7 breast cancer cells
T1 sequence (P03372 1-595): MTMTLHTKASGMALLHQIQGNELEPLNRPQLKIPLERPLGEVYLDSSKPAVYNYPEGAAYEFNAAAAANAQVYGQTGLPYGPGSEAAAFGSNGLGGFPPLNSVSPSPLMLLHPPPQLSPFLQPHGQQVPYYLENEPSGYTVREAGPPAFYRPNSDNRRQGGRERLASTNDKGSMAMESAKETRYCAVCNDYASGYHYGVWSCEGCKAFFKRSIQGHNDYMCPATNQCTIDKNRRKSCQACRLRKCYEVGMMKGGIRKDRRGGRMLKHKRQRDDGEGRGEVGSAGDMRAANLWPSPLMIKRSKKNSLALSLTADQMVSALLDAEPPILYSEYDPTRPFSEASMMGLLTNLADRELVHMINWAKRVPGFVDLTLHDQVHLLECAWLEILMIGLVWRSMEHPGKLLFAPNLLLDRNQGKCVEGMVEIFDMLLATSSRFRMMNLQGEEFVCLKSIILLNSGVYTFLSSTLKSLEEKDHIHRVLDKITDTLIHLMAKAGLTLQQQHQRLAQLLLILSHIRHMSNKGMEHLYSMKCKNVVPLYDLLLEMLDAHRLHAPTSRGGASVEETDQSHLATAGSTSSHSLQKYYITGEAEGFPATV
Kind of experiment: Breast Cancer Cell ERa High Content Fluorescence Imaging Degradation Assay (Example 901). Format: cell-based. Particulars: MCF7 breast cancer cells, 4 hours, plateau of the maximal effect. In a few lines: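 MCF7 cells in phenol red-free RPMI with 10% charcoal-stripped FBS, exposed to compound at 0.05–835 nM (10-point, 1.8×, duplicate; 0.84% DMSO) for 4 h at 37 °C. Fixed cells immunostained for ESR1 (F10 mAb, Alexa 488) with Hoechst nuclear mask; nuclear ESR1 intensity imaged per cell. DMSO and 5 nM fulvestrant set 0%/100%; EC50 and Sinf by robust fit.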

[2] abbreviates: Table 1a, DMSO and Fulvestrant define 0% and 100% changes in ESR1.

Each structure is given as a SMILES string. Read-outs that look alike come from different tables or passages of the source.

The text below walks through data of patent US20170362228A1, “TETRAHYDRO-PYRIDO[3,4-b]INDOLE ESTROGEN RECEPTOR MODULATORS AND USES THEREOF” (Genentech, Inc., priority 2016, published 2017).

By EC50 is commonly meant the concentration that produces a half-maximal response.

`C[C@@H]1Cc2c([nH]c3ccccc23)[C@@H](c2c(F)cc(C(F)(F)C3CN(CCCF)C3)cc2F)N1CC(C)(C)F` [Compound 146, (1R,3R)-1-(4-(Difluoro(1-(3-fluoropropyl)azetidin-3-yl)methyl)-2,6-difluorophenyl)-2-(2-fluoro-2-methylpropyl)-3-methyl-2,3,4,9-tetrahydro-1H-pyrido[3,4-b]indole]: the EC50 with MCF7 cells (Homo sapiens, MCF7, Table 1a) was found to be 0.26 nM. Also, the “ER-alpha MCF7 HCS (S inf)” value in experiment [1] (setting [2]) was −96.1%.
As to `C[C@@H]1Cc2c([nH]c3ccccc23)[C@@H](c2c(F)cc(C(C#N)C3CN(CCCF)C3)cc2F)N1CC(F)(F)CO` (stereo partly drawn) [Compound 150, 2-(4-((1R,3R)-2-(2,2-difluoro-3-hydroxypropyl)-3-methyl-2,3,4,9-tetrahydro-1H-pyrido[3,4-b]indol-1-yl)-3,5-difluorophenyl)-2-(1-(3-fluoropropyl)azetidin-3-yl)acetonitrile], in the experiment on MCF7 cells (Homo sapiens, MCF7, Table 1a), the EC50 is 0.054 nM. For the same compound, in experiment [1] (setting [2]), the “ER-alpha MCF7 HCS (S inf)” value is reported as −94%.
Take `C[C@@H]1Cc2c([nH]c3ccccc23)[C@@H](c2c(F)cc(C(O)C3CN(CCC(F)F)C3)cc2F)N1CC(F)(F)CO` (stereo partly drawn) [Compound 153, 3-((1R,3R)-1-(4-((1-(3,3-difluoropropyl)azetidin-3-yl)(hydroxy)methyl)-2,6-difluorophenyl)-3-methyl-3,4-dihydro-1H-pyrido[3,4-b]indol-2(9H)-yl)-2,2-difluoropropan-1-ol]: in the experiment on MCF7 cells (Homo sapiens, MCF7, Table 1b), the EC50 came out at 0.17 nM. Besides, the “ER-alpha MCF7 HCS (S inf)” value in experiment [1] (Table 1b) is given as −92%.
Take `C[C@@H]1Cc2c([nH]c3ccccc23)[C@@H](c2c(F)cc([C@@](C)(O)C3CN(CCCF)C3)cc2F)N1CC(F)(F)CO` [Compound 154, 3-((1R,3R)-1-(2,6-difluoro-4-((S)-1-(1-(3-fluoropropyl)azetidin-3-yl)-1-hydroxyethyl)phenyl)-3-methyl-3,4-dihydro-1H-pyrido[3,4-b]indol-2(9H)-yl)-2,2-difluoropropan-1-ol]: the EC50 in the experiment on MCF7 cells (Homo sapiens, MCF7, Table 1b) turned out to be 0.058 nM. Also, in experiment [1] (Table 1b), the “ER-alpha MCF7 HCS (S inf)” value was −98%.
Regarding `C[C@@H]1Cc2c([nH]c3ccccc23)[C@@H](c2c(F)cc([C@](C)(O)C3CN(CCCF)C3)cc2F)N1CC(F)(F)CO` [Compound 155, 3-((1R,3R)-1-(2,6-difluoro-4-((R)-1-(1-(3-fluoropropyl)azetidin-3-yl)-1-hydroxyethyl)phenyl)-3-methyl-3,4-dihydro-1H-pyrido[3,4-b]indol-2(9H)-yl)-2,2-difluoropropan-1-ol], the EC50 in the experiment on MCF7 cells (Homo sapiens, MCF7, Table 1b) was 0.74 nM. In experiment [1] (Table 1b), the “ER-alpha MCF7 HCS (S inf)” value is listed as −84%.
As to `C[C@@H]1Cc2c([nH]c3ccccc23)[C@@H](c2c(F)cc([C@H](F)C3CN(CCCF)C3)cc2F)N1C[C@H](F)CO` [Compound 158, (S)-3-((1R,3R)-1-(2,6-difluoro-4-((R)-fluoro(1-(3-fluoropropyl)azetidin-3-yl)methyl)phenyl)-3-methyl-3,4-dihydro-1H-pyrido[3,4-b]indol-2(9H)-yl)-2-fluoropropan-1-ol], the EC50 in the experiment with MCF7 cells (Homo sapiens, MCF7, Table 1b) amounted to 0.4 nM. The “ER-alpha MCF7 HCS (S inf)” value in experiment [1] (Table 1b) is on record as −101%.
The like results for `C[C@@H]1Cc2c([nH]c3ccccc23)[C@@H](c2c(F)cc([C@@H](F)C3CN(CCCF)C3)cc2F)N1C[C@H](F)CO` [Compound 159, (S)-3-((1R,3R)-1-(2,6-difluoro-4-((S)-fluoro(1-(3-fluoropropyl)azetidin-3-yl)methyl)phenyl)-3-methyl-3,4-dihydro-1H-pyrido[3,4-b]indol-2(9H)-yl)-2-fluoropropan-1-ol] were, in that order, 0.081 nM and −99%.
Consider `C[C@@H]1Cc2c([nH]c3ccccc23)[C@@H](c2c(F)cc([C@H](O)C3CN(CCCF)C3)cc2F)N1C[C@@H](F)CF` [Compound 161], for which the EC50 in the experiment with MCF7 cells (Homo sapiens, MCF7, Table 1b) was 0.13 nM. Besides, the “ER-alpha MCF7 HCS (S inf)” value in experiment [1] (Table 1b) is given as −97%.
As to `C[C@@H]1Cc2c([nH]c3ccccc23)[C@@H](c2c(F)cc([C@@H](O)C3CN(CCCF)C3)cc2F)N1C[C@H](F)CF` [Compound 162, (S)-(4-((1R,3R)-2-((S)-2,3-difluoropropyl)-3-methyl-2,3,4,9-tetrahydro-1H-pyrido[3,4-b]indol-1-yl)-3,5-difluorophenyl)(1-(3-fluoropropyl)azetidin-3-yl)methanol], the EC50 with MCF7 cells (Table 1b) was 0.07 nM. Also, the “ER-alpha MCF7 HCS (S inf)” value in experiment [1] (Table 1b) is recorded as −100%.
As for `C[C@@H]1Cc2c([nH]c3ccccc23)[C@@H](c2c(F)cc([C@H](O)C3CN(CCCF)C3)cc2F)N1C[C@H](F)CF` [Compound 163], the EC50 in the experiment with MCF7 cells (Homo sapiens, MCF7, Table 1b) was determined as 0.2 nM. Moreover, the “ER-alpha MCF7 HCS (S inf)” value in experiment [1] (Table 1b) is recorded as −102%.
The like results for `CO[C@@H](c1cc(F)c([C@@H]2c3[nH]c4ccc(F)cc4c3C[C@@H](C)N2CC(F)(F)CO)c(F)c1)C1CN(CCCF)C1` [Compound 164, 3-((1R,3R)-1-(2,6-difluoro-4-((R)-(1-(3-fluoropropyl)azetidin-3-yl)(methoxy)methyl)phenyl)-6-fluoro-3-methyl-3,4-dihydro-1H-pyrido[3,4-b]indol-2(9H)-yl)-2,2-difluoropropan-1-ol] were, in that order, 0.38 nM and −85%.
In the same order, the values of `CO[C@H](c1cc(F)c([C@@H]2c3[nH]c4ccc(F)cc4c3C[C@@H](C)N2CC(F)(F)CO)c(F)c1)C1CN(CCCF)C1` [Compound 165, 3-((1R,3R)-1-(2,6-difluoro-4-((S)-(1-(3-fluoropropyl)azetidin-3-yl)(methoxy)methyl)phenyl)-6-fluoro-3-methyl-3,4-dihydro-1H-pyrido[3,4-b]indol-2(9H)-yl)-2,2-difluoropropan-1-ol] are 0.17 nM and −92%.
The like results for `C[C@@H]1Cc2c([nH]c3ccccc23)[C@@H](c2c(F)cc(CC3CN(CCCF)C3)cc2F)N1C[C@H](F)CO` [Compound 166, (S)-3-((1R,3R)-1-(2,6-difluoro-4-((1-(3-fluoropropyl)azetidin-3-yl)methyl)phenyl)-3-methyl-3,4-dihydro-1H-pyrido[3,4-b]indol-2(9H)-yl)-2-fluoropropan-1-ol] were, in that order, 0.04 nM and −99%.
For `CO[C@@H](c1cc(F)c([C@@H]2c3[nH]c4ccccc4c3C[C@@H](C)N2CC(F)(F)CO)c(F)c1)C1CN(CCCF)C1` [Compound 169, 3-((1R,3R)-1-(2,6-Difluoro-4-((R)-(1-(3-fluoropropyl)azetidin-3-yl)(methoxy)methyl)phenyl)-3-methyl-3,4-dihydro-1H-pyrido[3,4-b]indol-2(9H)-yl)-2,2-difluoropropan-1-ol], the EC50 with MCF7 cells (Homo sapiens, MCF7, Table 1b) stood at 0.108 nM. Besides, in experiment [1] (Table 1b), the “ER-alpha MCF7 HCS (S inf)” value is given as −89%.
The like results for `CO[C@H](c1cc(F)c([C@@H]2c3[nH]c4ccccc4c3C[C@@H](C)N2CC(F)(F)CO)c(F)c1)C1CN(CCCF)C1` [Compound 170, 3-((1R,3R)-1-(2,6-Difluoro-4-((S)-(1-(3-fluoropropyl)azetidin-3-yl)(methoxy)methyl)phenyl)-3-methyl-3,4-dihydro-1H-pyrido[3,4-b]indol-2(9H)-yl)-2,2-difluoropropan-1-ol] were, in that order, 0.078 nM and −94%.
The like results for `C[C@@H]1Cc2c([nH]c3ccccc23)[C@@H](c2ccc([C@H](O)C3CN(CCCF)C3)c(F)c2)N1CC(F)(F)CO` [Compound 171, 2,2-difluoro-3-((1R,3R)-1-(3-fluoro-4-((R)-(1-(3-fluoropropyl)azetidin-3-yl)(hydroxy)methyl)phenyl)-3-methyl-1,3,4,9-tetrahydro-2H-pyrido[3,4-b]indol-2-yl)propan-1-ol] were, in that order, 0.087 nM and −93%.
In the same order, the values of `C[C@@H]1Cc2c([nH]c3ccccc23)[C@@H](c2ccc([C@@H](O)C3CN(CCCF)C3)c(F)c2)N1CC(F)(F)CO` [Compound 172, 2,2-difluoro-3-((1R,3R)-1-(3-fluoro-4-((S)-(1-(3-fluoropropyl)azetidin-3-yl)(hydroxy)methyl)phenyl)-3-methyl-1,3,4,9-tetrahydro-2H-pyrido[3,4-b]indol-2-yl)propan-1-ol] are 0.051 nM and −101%.
Regarding `C[C@@H]1Cc2c([nH]c3ccccc23)[C@@H](c2ccc([C@H](O)C3CN(CCCF)C3)c(F)c2F)N1CC(F)(F)CO` [Compound 173, 3-((1R,3R)-1-(2,3-difluoro-4-((R)-(1-(3-fluoropropyl)azetidin-3-yl)(hydroxy)methyl)phenyl)-3-methyl-1,3,4,9-tetrahydro-2H-pyrido[3,4-b]indol-2-yl)-2,2-difluoropropan-1-ol], in the experiment on MCF7 cells (Homo sapiens, MCF7, Table 1b), the EC50 was found to be 0.072 nM. Moreover, the “ER-alpha MCF7 HCS (S inf)” value in experiment [1] (Table 1b) is reported as −100%.
